Test results as given in patent publication US4228158A, “Synthetic peptides having pituitary growth hormone releasing activity” (priority 1979, dated 1980).
Non-standard residues stand in square brackets, D forms with d. Residues, ends and D or L forms follow the SMILES beside them.

System: pituitaries removed from 20 day old female rats
Experiment: In vitro growth hormone release study (incubated rat pituitaries, GH radioimmunoassay)
Format: cell-based
Settings: two pituitaries in 1 ml lactated Ringer's, 36° C., ± SEM
Protocol: Female rats of the CD-1 strain were housed in a constant temperature room at 24° C. with 14 hours light and 10 hours darkness. The rats were fed Purina brand rat chow ab libitum.
All studies were started between 0800 and 1000 hours.
Pituitaries were removed from 20 day old female rats. Two pituitaries were incubated at 36° C. in 1 ml of lactated Ringer's solution in 10 ml polytetrafluoroethylene beakers in a Dubnoff Shaker (90 cycles/min.). The pituitaries were incubated a total of 4 hours (P1, P2, I3, and I4). After two successive one hour preincubation periods (P1, P2), the peptide was added to the incubation medium hourly for 2 hours (I3, I4).
This in vitro study was performed in triplicate and a standard radioimmunoassay of growth hormone present in the incubation medium was performed in duplicate. The hormonal activity was calculated as the difference (Δ) of growth hormone (GH) levels between I3, I4 and P2, i.e., (I3 -P2) and (I4 -P2). P values were calculated by Students' t test using six growth hormone values for each value recorded.
The growth hormone radioimmunoassay reagents were distributed by the National Institute of Arthritis and […] (NIAMDD) program. The growth hormone values were calculated in terms of nanograms (ng) of a rat standard with a growth hormone potency of 0.61 units/mg.

In the case of CSCC[C@H](NC(=O)[C@H](Cc1ccccc1)NC(=O)[C@@H](Cc1c[nH]c2ccccc12)NC(=O)[C@@H](Cc1c[nH]c2ccccc12)NC(=O)[C@@H](N)Cc1ccc(O)cc1)C(N)=O [H2 N-Tyr-D-Trp-D-Trp-Phe-Met-CONH2] (H-Y[dW][dW]FM-NH2), the “In vitro growth hormone release (ΔGH, I3-P2 and I4-P2)” value (1μg peptide, P <0.001) is reported as 1697 ± 222 ngΔGH/ml incubation medium, the “In vitro growth hormone release (ΔGH, I3-P2 and I4-P2)” value (20μg peptide, P <0.001) is reported as 1530 ± 208 ngΔGH/ml incubation medium and the “In vitro growth hormone release (ΔGH, I3-P2 and I4-P2)” value (100μg peptide, P ~0.02) is reported as 219 ± 113 ngΔGH/ml incubation medium.
